Calls of active or inactive are those of the source. No rule for the calls is given here.
Test system: CCRIS mutagenicity, Ames/micronucleus/aberration tests
Experiment: CCRIS mutagenicity studies
[1] = Test System: Mouse lymphoma, Strain/Indicator: L5178Y (tk+/tk-), Metabolic Activation: None, Method: Suspension/plate
[2] = Test System: Mouse lymphoma, Strain/Indicator: L5178Y (tk+/tk-), Metabolic Activation: Rat, Liver, S-9, Aroclor 1254, Method: Suspension/plate

CC(C)=CCOc1c2occc2cc2ccc(=O)oc12
mutagenic call (Test System: AMES SALMONELLA TYPHIMURIUM, Strain/Indicator: TA92, Metabolic Activation: NONE, Method: SPOT TEST): active; positive
mutagenic call (Test System: AMES SALMONELLA TYPHIMURIUM, Strain/Indicator: TA92, Metabolic Activation: RAT, LIVER, S-9, AROCLOR 1254, Method: SPOT TEST): active; positive
mutagenic call (Test System: AMES SALMONELLA TYPHIMURIUM, Strain/Indicator: TA94, Metabolic Activation: NONE, Method: SPOT TEST): inactive; negative
mutagenic call (Test System: AMES SALMONELLA TYPHIMURIUM, Strain/Indicator: TA94, Metabolic Activation: RAT, LIVER, S-9, AROCLOR 1254, Method: SPOT TEST): inactive; negative
mutagenic call (Test System: AMES SALMONELLA TYPHIMURIUM, Strain/Indicator: TA97, Metabolic Activation: NONE, Method: SPOT TEST): active; positive
mutagenic call (Test System: AMES SALMONELLA TYPHIMURIUM, Strain/Indicator: TA97, Metabolic Activation: RAT, LIVER, S-9, AROCLOR 1254, Method: SPOT TEST): active; positive
mutagenic call (Test System: AMES SALMONELLA TYPHIMURIUM, Strain/Indicator: TA98, Metabolic Activation: NONE, Method: SPOT TEST): active; positive
mutagenic call (Test System: AMES SALMONELLA TYPHIMURIUM, Strain/Indicator: TA98, Metabolic Activation: NONE, Method: STANDARD PLATE): inactive; negative
mutagenic call (Test System: AMES SALMONELLA TYPHIMURIUM, Strain/Indicator: TA98, Metabolic Activation: RAT, LIVER, S-9, AROCLOR 1254, Method: SPOT TEST): active; positive
mutagenic call (Test System: AMES SALMONELLA TYPHIMURIUM, Strain/Indicator: TA98, Metabolic Activation: RAT, LIVER, S-9, PHENOBARBITAL, Method: STANDARD PLATE): inactive; negative
mutagenic call (Test System: AMES SALMONELLA TYPHIMURIUM, Strain/Indicator: TA100, Metabolic Activation: NONE, Method: SPOT TEST): active; positive
mutagenic call (Test System: AMES SALMONELLA TYPHIMURIUM, Strain/Indicator: TA100, Metabolic Activation: NONE, Method: STANDARD PLATE): active; positive
mutagenic call (Test System: AMES SALMONELLA TYPHIMURIUM, Strain/Indicator: TA100, Metabolic Activation: RAT, LIVER, S-9, AROCLOR 1254, Method: SPOT TEST): active; positive
mutagenic call (Test System: AMES SALMONELLA TYPHIMURIUM, Strain/Indicator: TA102, Metabolic Activation: NONE, Method: SPOT TEST): inactive; negative
mutagenic call (Test System: AMES SALMONELLA TYPHIMURIUM, Strain/Indicator: TA102, Metabolic Activation: RAT, LIVER, S-9, AROCLOR 1254, Method: SPOT TEST): inactive; negative

Nc1ccccc1C(=O)OC/C=C/c1ccccc1
mutagenic call (End Point: IN VITRO CHROMOSOMAL ABERRATIONS, Test System: CHINESE HAMSTER LUNG FIBROBLAST CELLS (CHL/IU), Metabolic Activation: NONE): inactive; negative
mutagenic call (End Point: IN VITRO CHROMOSOMAL ABERRATIONS, Test System: CHO CELLS, Metabolic Activation: NONE): inactive; negative
mutagenic call (End Point: IN VITRO CHROMOSOMAL ABERRATIONS, Test System: CHO CELLS, Metabolic Activation: RAT, LIVER, S-9, AROCLOR 1254): inactive; negative
mutagenic call (Test System: AMES SALMONELLA TYPHIMURIUM, Strain/Indicator: TA97, Metabolic Activation: HAMSTER, LIVER, S-9, AROCLOR 1254 (10%), Method: PREINCUBATION): inactive; negative
mutagenic call (Test System: AMES SALMONELLA TYPHIMURIUM, Strain/Indicator: TA97, Metabolic Activation: HAMSTER, LIVER, S-9, AROCLOR 1254 (30%), Method: PREINCUBATION): inactive; negative
mutagenic call (Test System: AMES SALMONELLA TYPHIMURIUM, Strain/Indicator: TA97, Metabolic Activation: NONE, Method: PREINCUBATION): inactive; negative
mutagenic call (Test System: AMES SALMONELLA TYPHIMURIUM, Strain/Indicator: TA97, Metabolic Activation: RAT, LIVER, S-9, AROCLOR 1254 (10%), Method: PREINCUBATION): inactive; negative
mutagenic call (Test System: AMES SALMONELLA TYPHIMURIUM, Strain/Indicator: TA97, Metabolic Activation: RAT, LIVER, S-9, AROCLOR 1254 (30%), Method: PREINCUBATION): inactive; negative
mutagenic call (Test System: AMES SALMONELLA TYPHIMURIUM, Strain/Indicator: TA98, Metabolic Activation: HAMSTER, LIVER, S-9, AROCLOR 1254 (10%), Method: PREINCUBATION): inactive; negative
mutagenic call (Test System: AMES SALMONELLA TYPHIMURIUM, Strain/Indicator: TA98, Metabolic Activation: HAMSTER, LIVER, S-9, AROCLOR 1254 (30%), Method: PREINCUBATION): inactive; negative
mutagenic call (Test System: AMES SALMONELLA TYPHIMURIUM, Strain/Indicator: TA98, Metabolic Activation: NONE, Method: PREINCUBATION): inactive; negative
mutagenic call (Test System: AMES SALMONELLA TYPHIMURIUM, Strain/Indicator: TA98, Metabolic Activation: RAT, LIVER, S-9, AROCLOR 1254 (10%), Method: PREINCUBATION): inactive; negative
mutagenic call (Test System: AMES SALMONELLA TYPHIMURIUM, Strain/Indicator: TA98, Metabolic Activation: RAT, LIVER, S-9, AROCLOR 1254 (30%), Method: PREINCUBATION): inactive; negative
mutagenic call (Test System: AMES SALMONELLA TYPHIMURIUM, Strain/Indicator: TA100, Metabolic Activation: HAMSTER, LIVER, S-9, AROCLOR 1254 (10%), Method: PREINCUBATION): inactive; negative
mutagenic call (Test System: AMES SALMONELLA TYPHIMURIUM, Strain/Indicator: TA100, Metabolic Activation: HAMSTER, LIVER, S-9, AROCLOR 1254 (30%), Method: PREINCUBATION): inactive; negative
mutagenic call (Test System: AMES SALMONELLA TYPHIMURIUM, Strain/Indicator: TA100, Metabolic Activation: NONE, Method: PREINCUBATION): inactive; negative
mutagenic call (Test System: AMES SALMONELLA TYPHIMURIUM, Strain/Indicator: TA100, Metabolic Activation: RAT, LIVER, S-9, AROCLOR 1254 (10%), Method: PREINCUBATION): inactive; negative
mutagenic call (Test System: AMES SALMONELLA TYPHIMURIUM, Strain/Indicator: TA100, Metabolic Activation: RAT, LIVER, S-9, AROCLOR 1254 (30%), Method: PREINCUBATION): inactive; negative
mutagenic call (Test System: AMES SALMONELLA TYPHIMURIUM, Strain/Indicator: TA1535, Metabolic Activation: HAMSTER, LIVER, S-9, AROCLOR 1254 (10%), Method: PREINCUBATION): inactive; negative
mutagenic call (Test System: AMES SALMONELLA TYPHIMURIUM, Strain/Indicator: TA1535, Metabolic Activation: HAMSTER, LIVER, S-9, AROCLOR 1254 (30%), Method: PREINCUBATION): inactive; negative
mutagenic call (Test System: AMES SALMONELLA TYPHIMURIUM, Strain/Indicator: TA1535, Metabolic Activation: NONE, Method: PREINCUBATION): inactive; negative
mutagenic call (Test System: AMES SALMONELLA TYPHIMURIUM, Strain/Indicator: TA1535, Metabolic Activation: RAT, LIVER, S-9, AROCLOR 1254 (10%), Method: PREINCUBATION): inactive; negative
mutagenic call (Test System: AMES SALMONELLA TYPHIMURIUM, Strain/Indicator: TA1535, Metabolic Activation: RAT, LIVER, S-9, AROCLOR 1254 (30%), Method: PREINCUBATION): inactive; negative
mutagenic call (Test System: E. COLI, Strain/Indicator: WP2 UVRA, Metabolic Activation: HAMSTER, LIVER, S-9, AROCLOR 1254, Method: STANDARD PLATE): inactive; negative
mutagenic call (Test System: E. COLI, Strain/Indicator: WP2 UVRA, Metabolic Activation: NONE, Method: STANDARD PLATE): inactive; negative
mutagenic call [1]: inactive; negative
mutagenic call [2]: active; equivocal (previous evaluation positive)
mutagenic call (Test System: UDS RAT HEPATOCYTES, Strain/Indicator: BROMODEOXYURIDINE INCORP, Metabolic Activation: NONE, Method: FLOW CYTOMETRIC ANALYSIS): inactive; negative
mutagenic call (Test System: UDS RAT HEPATOCYTES, Strain/Indicator: THY INCORP, Metabolic Activation: NONE, Method: AUTORADIOGRAPHY): inactive; negative

CCCc1cc(=O)oc2c3c(c4c(c12)OC(C)(C)CC4)O[C@@H](C)[C@H](C)[C@@H]3O
mutagenic call [1]: inactive; negative
mutagenic call [2]: inactive; negative

Reference: PubChem BioAssay AID1259407 (Chemical Carcinogenesis Research Information System (CCRIS), 2018)
